In PubChem BioAssay (NCI):
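96-well plates; 48 h exposure; 5 concentrations. Endpoints by linear interpolation between flanking doses. Not reached: highest tested concentration assigned. TGI: concentration producing complete growth inhibition.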

Experiments:
Assay in all cases: NCI-60 cell line screen, 48 h
SR leukemia = test system: SR leukemia
RPMI-8226 leukemia = test system: RPMI-8226 leukemia
MCF7 breast = test system: MCF7 breast
U251 CNS = test system: U251 CNS
CAKI-1 renal = test system: CAKI-1 renal
UACC-62 melanoma = test system: UACC-62 melanoma
SN12C renal = test system: SN12C renal
SF-295 CNS = test system: SF-295 CNS
HL-60(TB) leukemia = test system: HL-60(TB) leukemia
EKVX NSCLC = test system: EKVX NSCLC
COLO 205 colon = test system: COLO 205 colon
BT-549 breast = test system: BT-549 breast
OVCAR-3 ovarian = test system: OVCAR-3 ovarian
SW-620 colon = test system: SW-620 colon
NCI-H23 lung = test system: NCI-H23 lung
SK-MEL-5 melanoma = test system: SK-MEL-5 melanoma
IGROV1 ovarian = test system: IGROV1 ovarian
PC-3 prostate = test system: PC-3 prostate
OVCAR-8 ovarian = test system: OVCAR-8 ovarian
SNB-19 CNS = test system: SNB-19 CNS
T-47D breast = test system: T-47D breast
DU-145 prostate = test system: DU-145 prostate
HOP-92 NSCLC = test system: HOP-92 NSCLC
MOLT-4 leukemia = test system: MOLT-4 leukemia
SK-MEL-2 melanoma = test system: SK-MEL-2 melanoma
NCI-H522 lung = test system: NCI-H522 lung
KM12 colon = test system: KM12 colon
HCC-2998 colon = test system: HCC-2998 colon
UACC-257 melanoma = test system: UACC-257 melanoma
SK-MEL-28 melanoma = test system: SK-MEL-28 melanoma
OVCAR-5 ovarian = test system: OVCAR-5 ovarian
HCT-15 colon = test system: HCT-15 colon
HT29 colon = test system: HT29 colon
MDA-MB-231 breast = test system: MDA-MB-231 breast
OVCAR-4 ovarian = test system: OVCAR-4 ovarian
786-0 renal = test system: 786-0 renal
K-562 leukemia = test system: K-562 leukemia
HOP-62 NSCLC = test system: HOP-62 NSCLC
UO-31 renal = test system: UO-31 renal
HS 578T breast = test system: HS 578T breast
MDA-N = test system: MDA-N
MDA-MB-435 = test system: MDA-MB-435
CCRF-CEM leukemia = test system: CCRF-CEM leukemia
LOX IMVI melanoma = test system: LOX IMVI melanoma
SF-268 CNS = test system: SF-268 CNS
ACHN renal = test system: ACHN renal
HCT-116 colon = test system: HCT-116 colon
A549 NSCLC = test system: A549 NSCLC
TK-10 renal = test system: TK-10 renal
M14 melanoma = test system: M14 melanoma
NCI-H226 lung = test system: NCI-H226 lung
SF-539 CNS = test system: SF-539 CNS
NCI-H460 lung = test system: NCI-H460 lung
SK-OV-3 ovarian = test system: SK-OV-3 ovarian
RXF 393 renal = test system: RXF 393 renal
NCI/ADR-RES ovarian = test system: NCI/ADR-RES ovarian

COc1ccccc1/C=C1\Sc2scc(-c3ccc(O)c(O)c3)[n+]2C1=O
TGI (SR leukemia): 60.3 µM
TGI (RPMI-8226 leukemia): 45.2 µM
TGI (MCF7 breast): 91.5 µM
TGI (U251 CNS): > 100 µM
TGI (CAKI-1 renal): 29 µM
TGI (UACC-62 melanoma): 32.5 µM
TGI (SN12C renal): 67.5 µM
TGI (SF-295 CNS): > 100 µM
TGI (HL-60(TB) leukemia): 7.11 µM
TGI (EKVX NSCLC): > 100 µM
TGI (COLO 205 colon): 37.2 µM
TGI (BT-549 breast): 32.6 µM
TGI (OVCAR-3 ovarian): 36.7 µM
TGI (SW-620 colon): 31.6 µM
TGI (NCI-H23 lung): 73.5 µM
TGI (SK-MEL-5 melanoma): 44.1 µM
TGI (IGROV1 ovarian): 34.2 µM
TGI (PC-3 prostate): > 100 µM
TGI (OVCAR-8 ovarian): > 100 µM
TGI (SNB-19 CNS): > 100 µM
TGI (T-47D breast): 42.5 µM
TGI (DU-145 prostate): 57.4 µM
TGI (HOP-92 NSCLC): 38.4 µM
TGI (MOLT-4 leukemia): 38.9 µM
TGI (SK-MEL-2 melanoma): 64.1 µM
TGI (NCI-H522 lung): 24.8 µM
TGI (KM12 colon): > 100 µM
TGI (HCC-2998 colon): 31.6 µM
TGI (UACC-257 melanoma): 70.5 µM
TGI (SK-MEL-28 melanoma): 33.1 µM
TGI (OVCAR-5 ovarian): 85.7 µM
TGI (HCT-15 colon): 30.6 µM
TGI (HT29 colon): 41.4 µM
TGI (MDA-MB-231 breast): 45 µM
TGI (OVCAR-4 ovarian): 81.3 µM
TGI (786-0 renal): 29.2 µM
TGI (K-562 leukemia): 42.1 µM
TGI (HOP-62 NSCLC): > 100 µM
TGI (UO-31 renal): 43.2 µM
TGI (HS 578T breast): > 100 µM
TGI (MDA-N): 67.1 µM
TGI (MDA-MB-435): 86.2 µM
TGI (CCRF-CEM leukemia): 8.64 µM
TGI (LOX IMVI melanoma): 33.5 µM
TGI (SF-268 CNS): > 100 µM
TGI (ACHN renal): 31 µM
TGI (HCT-116 colon): 31.3 µM
TGI (A549 NSCLC): > 100 µM
TGI (TK-10 renal): > 100 µM
TGI (M14 melanoma): 30.6 µM
TGI (NCI-H226 lung): > 100 µM
TGI (SF-539 CNS): 55.8 µM
TGI (NCI-H460 lung): 38.3 µM
TGI (SK-OV-3 ovarian): 97 µM
TGI (RXF 393 renal): 56.9 µM
TGI (NCI/ADR-RES ovarian): > 100 µM
